Reference: the NIST ThermoML archive (doi:10.1016/j.tca.2006.05.010)
Numbers after ± are expanded uncertainties.

What was measured:
[1] = molar heat capacity at constant pressure; xn = mol fraction of the nth substance listed; details: 308.15 K, 101 kPa, Liquid, Small sample (50 mg) DSC
[2] = excess molar enthalpy (molar enthalpy of mixing); xn = mol fraction of the nth substance listed; details: 308.15 K, 101 kPa, Liquid, Flow calorimetry
[3] = 101.33 kPa, Liquid, Vibrating tube method
[4] = molar heat capacity at constant pressure; details: 101.33 kPa, Liquid, Small sample (50 mg) DSC
[5] = refractive index (Na D-line) (dimensionless); details: 101.33 kPa, Liquid, Standard Abbe refractometry

C1COCCO1 [1,4-dioxane] + C[S+](C)[O-]
Details	excess molar enthalpy [kcal/mol]	molar heat capacity at constant pressure [J/K/mol]
[1], x2 = 0.0749	–	154.8 ± 2.4
[1], x2 = 0.1148	–	155.1 ± 2.4
[1], x2 = 0.2112	–	155.5 ± 2.4
[1], x2 = 0.313	–	155.4 ± 2.4
[1], x2 = 0.4096	–	155.1 ± 2.4
[1], x2 = 0.5185	–	154.6 ± 2.4
[1], x2 = 0.6108	–	153.9 ± 2.4
[1], x2 = 0.6637	–	153.5 ± 2.4
[1], x2 = 0.7064	–	153.2 ± 2.4
[1], x2 = 0.8128	–	152.5 ± 2.4
[1], x2 = 0.8952	–	152.7 ± 2.4
[1], x2 = 0.9586	–	153.5 ± 2.4
[2], x2 = 0.0478	0.0318 ± 0.000478	–
[2], x2 = 0.0911	0.0531 ± 0.000717	–
[2], x2 = 0.1308	0.0672 ± 0.000956	–
[2], x2 = 0.1671	0.0765 ± 0.000956	–
[2], x2 = 0.2313	0.0872 ± 0.0012	–
[2], x2 = 0.2863	0.0923 ± 0.0012	–
[2], x2 = 0.3757	0.0978 ± 0.0012	–
[2], x2 = 0.4451	0.0997 ± 0.00143	–
[2], x2 = 0.5462	0.0966 ± 0.0012	–
[2], x2 = 0.6437	0.0915 ± 0.0012	–
[2], x2 = 0.7066	0.0851 ± 0.0012	–
[2], x2 = 0.7831	0.0741 ± 0.000956	–
[2], x2 = 0.828	0.065 ± 0.000956	–
[2], x2 = 0.8784	0.0495 ± 0.000717	–
[2], x2 = 0.9059	0.0399 ± 0.000717	–
[2], x2 = 0.9353	0.0277 ± 0.000478	–
[2], x2 = 0.9665	0.0158 ± 0.000239	–

C[S+](C)[O-] [dimethyl sulfoxide]
Details	mass density [kg/m3]	molar heat capacity at constant pressure [J/K/mol]	refractive index
[3], 298.15 K	1095.58 ± 0.29	–	–
[3], 308.15 K	1085.5 ± 0.29	–	–
[4], 293.15 K	–	151.2 ± 2.3	–
[4], 298.15 K	–	152.4 ± 2.4	–
[4], 303.15 K	–	153.4 ± 2.4	–
[4], 308.15 K	–	154.8 ± 2.4	–
[4], 313.15 K	–	155.4 ± 2.4	–
[4], 318.15 K	–	156.6 ± 2.4	–
[4], 323.15 K	–	157.7 ± 2.4	–
[4], 328.15 K	–	157.8 ± 2.4	–
[4], 333.15 K	–	158.5 ± 2.5	–
[4], 338.15 K	–	159.3 ± 2.5	–
[4], 343.15 K	–	159.5 ± 2.5	–
[4], 348.15 K	–	160.2 ± 2.5	–
[4], 353.15 K	–	160.3 ± 2.5	–
[4], 358.15 K	–	161.3 ± 2.5	–
[4], 363.15 K	–	161.5 ± 2.5	–
[4], 368.15 K	–	161.7 ± 2.5	–
[4], 373.15 K	–	162.6 ± 2.5	–
[4], 378.15 K	–	163.3 ± 2.5	–
[4], 383.15 K	–	164.8 ± 2.6	–
[4], 388.15 K	–	166.3 ± 2.6	–
[4], 393.15 K	–	168.3 ± 2.6	–
[4], 398.15 K	–	169.1 ± 2.6	–
[4], 403.15 K	–	170.3 ± 2.6	–
[4], 408.15 K	–	170.4 ± 2.6	–
[4], 413.15 K	–	170.6 ± 2.6	–
[4], 418.15 K	–	171.1 ± 2.7	–
[4], 423.15 K	–	171.2 ± 2.7	–
[5], 298.15 K	–	–	1.4775 ± 0.0004
[5], 308.15 K	–	–	1.4729 ± 0.0004

C1CCOC1 [tetrahydrofuran]
Details	mass density, [3] [kg/m3]	molar heat capacity at constant pressure, [4] [J/K/mol]	refractive index, [5]
288.15 K	–	121.1 ± 1.9	–
293.15 K	–	123.8 ± 1.9	–
298.15 K	881.9 ± 0.11	126.4 ± 2	1.4048 ± 0.0004
303.15 K	–	128.5 ± 2	–
308.15 K	870.99 ± 0.12	131.4 ± 2	1.4002 ± 0.0004
313.15 K	–	133.2 ± 2.1	–
318.15 K	–	135.2 ± 2.1	–
323.15 K	–	136.6 ± 2.1	–
